In PubChem BioAssay AID1159563 (GlaxoSmithKline (GSK), 2015) one finds IC50 data, which are given here for 74 molecules.

Active and inactive are the calls of the source. No rule for the calls is given here.

The test system of the test is HepG2 cytotoxicity. The test is described as follows: human hepatoma cell viability loss – cytotoxicity control (AID 1159563).
The term IC50 denotes the concentration at which inhibition is half-maximal. `Cc1ccc(C)c(-n2nnnc2Sc2nc([N+](=O)[O-])nn2C)c1`: the IC50 is > 100 µM (inactive). In the case of `O=C(CSc1nnc2ccc(-c3ccc(F)cc3)nn12)N1CCCCC1`, the IC50 is > 100 µM (inactive). The value for `NS(=O)(=O)c1ccc(CNC(=O)c2ccc([N+](=O)[O-])s2)cc1` was 16 µM; that for `Cc1cccc(Nc2nc(-c3ccccn3)cs2)n1` was 40 µM; that for `O=C(NCc1nnc2n1CCCCC2)c1ccc(-c2ccc(F)cc2)o1` was > 100 µM (inactive). The value for `CN(C)Cc1cccc(Nc2nccc(-c3ccc(NCCN)c(C#N)c3)n2)c1` was 25 µM. As to `CCCCCNC(=O)c1c[nH]c2ccc(S(=O)(=O)N(C)c3ccc(OCC)cc3)cc2c1=O`, the IC50 is > 100 µM (inactive). The value for `CCC(=O)Nc1ccc(-c2nc3ccc(Cl)cc3[nH]2)cc1` was > 100 µM (inactive); that for `Cc1ccccc1NS(=O)(=O)c1ccc2[nH]cc(C(=O)NC3CCCC3)c(=O)c2c1` was 25 µM; that for `Cc1cc(NC(=O)CC2CCCCC2)n(-c2nc3c(c(=O)[nH]2)CCC3)n1` was > 100 µM (inactive).

For `O=C1CN(C(=O)c2cccc(Nc3ncc(-c4ccc5c(c4)OCO5)cn3)c2)CCN1`, the IC50 was > 130 µM (inactive). The value for `N#CN1CC[C@@H](NC(=O)Nc2ccccc2Oc2ccccc2)C1` was 40 µM; that for `CC(C)COC(=O)Nc1ccc(N2CCC(CNS(=O)(=O)c3ccccc3)CC2)c(F)c1` was > 100 µM (inactive); that for `O=C(NCc1ccc(-n2cccc2)cc1)c1nc(Cn2ccc([N+](=O)[O-])n2)no1` was > 100 µM (inactive).

As for `COc1ccc2ncc(=O)n(CCN3CCOC(CNCc4ccc(C(F)(F)F)cc4F)C3)c2n1` (centres undefined), the IC50 is > 100 µM (inactive). The value for `O=C(c1cccc(Nc2ncc(-c3ccc4c(c3)OCO4)cn2)c1)N1CCOCC1` was > 130 µM (inactive); that for `CNc1cncc(C2CCCN2C(=O)Cc2coc3cc(C)ccc23)n1` (centres undefined) was > 100 µM (inactive). With `N#Cc1ccc(S(=O)(=O)N2CCC3(CCN(c4ccccc4)C3=O)CC2)cc1`, the IC50 was > 100 µM (inactive). The value for `O=C(NC1C(=O)N(c2ccccc2)C1c1cccnc1)c1ccc(Cl)s1` (centres undefined) was > 100 µM (inactive). Consider `Cc1cc(NC(=O)C2CC2)ccc1OC1CCN(Cc2ccco2)CC1`, for which the IC50 is 50 µM. On to `CC(C)Nc1nc(Cl)nc2ccccc12`, for which the 50% inhibitory concentration (IC50) is 40 µM.

For `CCCCn1nnnc1CSc1nc(C)cc(C)c1C#N`, the IC50 was > 100 µM (inactive). As to `COc1ccc(C(=O)Nc2ccc(NC(=O)CO)cc2)cc1`, the IC50 is > 100 µM (inactive).

Turning to `CCC1Oc2cc(S(=O)(=O)N(C)CC(=O)N3CCc4ccccc4C3)c(C)cc2NC1=O` (centres undefined), the IC50 is > 100 µM (inactive). With `CN(Cc1ccc(F)cc1)c1ccc(OCC(=O)N2CCCCC2c2cccnc2)nn1` (centres undefined) the figure was > 100 µM (inactive); with `O=C(CN1CCC2(O)CCCCC2C1c1ccc2c(c1)OCO2)Nc1ccc(Cl)cc1Cl` (centres undefined), > 100 µM (inactive). With `Cc1ccc(NC(=O)c2ccc([N+](=O)[O-])s2)cc1S(=O)(=O)N1CCOCC1` the figure was 16 µM; with `O=C1OCc2ccc(Nc3nccc(-c4cnn5ncccc45)n3)cc21`, > 100 µM (inactive); with `N#Cc1cc(-c2ccnc(Nc3cccc(CN4CCOCC4)c3)n2)ccc1NCCN`, 50 µM. The value for `COc1ccccc1C1CC(c2ccc(NS(C)(=O)=O)cc2)=NN1C(=O)c1cccs1` (centres undefined) was > 100 µM (inactive).

As to `Cn1nccc1NC(=O)Cn1ccc(-c2ccncc2)n1`, the IC50 is > 100 µM (inactive). Consider `CCCCc1cc(Nc2cc(C3CCC3)[nH]n2)nc(N2CCC2C(N)=O)n1` (centres undefined), for which the IC50 was > 100 µM (inactive). With `CCNc1cc(-c2ccccn2)nc(Nc2ccc(OC)cc2)n1` the figure was 40 µM; with `N#Cc1nc(C=Cc2ccccc2)oc1NCc1cccnc1`, > 100 µM (inactive). Regarding `O=c1[nH]c(C=Cc2cccc(OCCOc3ccccc3)c2)nc(O)c1[N+](=O)[O-]`, the IC50 is > 100 µM (inactive). With `O=C(Nc1ccc(S(=O)(=O)N2CCCC2)cc1)c1ccc([N+](=O)[O-])s1` the figure was 6.3 µM; with `COc1ccc(S(=O)(=O)NCc2ccc(-c3ccc(CN(C)CCO)cc3)cc2)cc1`, 50 µM; with `COc1ccc(-c2cnc(NC(=O)c3ccc(F)cc3)n2C)cc1`, > 100 µM (inactive). With `N#Cc1ccc(Br)cc1[N+](=O)[O-]` the figure was 20 µM; with `Fc1ccccc1N1C[C@H]2CCN(c3cccnc3)C[C@H]2C1`, > 100 µM (inactive); with `Cc1cc(C#N)c([N+](=O)[O-])cc1Br`, 32 µM. With `CC(C)Oc1ccc(C(=O)Nc2ccc(N3CCOCC3)c(Cl)c2)cc1` the figure was 32 µM; with `COc1ncc(-c2ccc3ncnc(N4CCOCC4)c3c2)cc1NS(C)(=O)=O`, > 100 µM (inactive). Turning to `O=[N+]([O-])c1ccc(-c2nnn(-c3cccnc3)n2)o1`, the IC50 is > 100 µM (inactive). With `COc1cc(F)c2ncc(F)c(CCN3CC[C@H](NCc4cc5c(cn4)OCS5)[C@@H](O)C3)c2c1`, the IC50 was 50 µM. Take `CC(C)Oc1cccc(N2CCC(C(=O)N3CCCN(C(C)C)CC3)CC2)c1`: the IC50 is > 100 µM (inactive). The value for `Cc1cc(=O)n2nc(Oc3ccc(C#N)cc3Cl)sc2n1` was 40 µM.

With `c1ccc(CCNCc2cncc3nc(-c4cnccn4)n(C4CCCCC4)c23)cc1`, the IC50 was > 100 µM (inactive). Consider `O=C(NCC1CCCCC1)c1cnns1`, for which the IC50 is 40 µM. With `COc1ccc(Nc2nc(-c3ccccn3)cc(N3CCCC(O)C3)n2)cc1` (centres undefined) the figure was 40 µM; with `CC(=O)NC1(c2ccccc2)CCN(CC(=O)Nc2ccccc2-c2ccccc2)CC1`, > 100 µM (inactive); with `CN(CC1CCCO1)S(=O)(=O)c1ccc(C(=O)Nc2nc(-c3ccccn3)cs2)cc1` (centres undefined), 63 µM. With `CN(C)S(=O)(=O)c1cccc(C(=O)Nc2nc(-c3ccccn3)cs2)c1` the figure was > 100 µM (inactive); with `CCCc1nc2nc(N)nc(N)c2cc1CC`, 20 µM; with `Cc1cc(C)n(-c2nc(NC(C)C)nc(NC(C)(C)C)n2)n1`, > 100 µM (inactive). The value for `CC(C)(C)CC(=O)NCc1noc(COc2ccccc2)n1` was > 100 µM (inactive); that for `c1ccc(-c2nc(NC3CCCCC3)cc(C3CC3)n2)nc1` was 40 µM. As to `COc1ccc(NS(=O)(=O)c2cc(-c3cc(C)[nH]n3)ccc2C)cc1OC`, the IC50 is > 100 µM (inactive). Consider `Fc1ccc(Nc2nc(-c3ccccn3)cs2)cc1`, for which the IC50 was > 100 µM (inactive).

Take `Cc1c(C(C)NC(=O)Nc2cccc(Cl)c2)sc2ncnn12` (centres undefined): the IC50 is > 100 µM (inactive). With `CC(C)c1cc(C(=O)N2CCCC(c3cc4ncccc4[nH]3)C2)on1` (centres undefined) the figure was > 100 µM (inactive); with `COc1ccccc1CNc1cc(C2CC2)nc(-c2nccn2C)n1`, 20 µM. As to `O=C(c1ccc(Cl)cc1)c1ccc(OC(=O)N2CCOCC2)cc1`, the IC50 is > 100 µM (inactive). With `COc1ccc(-c2csc(NC(=O)c3ccc([N+](=O)[O-])s3)n2)cc1`, the IC50 is > 100 µM (inactive). With `Cn1nc([N+](=O)[O-])nc1N1CCCCC1` the figure was > 100 µM (inactive); with `c1ccc2c(CCOc3nccnc3-c3ccncc3)c[nH]c2c1`, > 100 µM (inactive); with `CC(C)c1cc(Nc2cc(Cc3ccccc3)nc(NC3CCC(O)CC3)n2)n[nH]1` (centres undefined), 32 µM. The value for `COCCn1c(-c2ccc3c(c2)OCO3)cnc1NCc1ccccc1OC` was 40 µM; that for `COc1ccc2nccc([C@H](O)CN3CC[C@H](NC(=O)c4ccc(Br)cc4)[C@@H](O)C3)c2n1` was > 100 µM (inactive). Turning to `COc1ccc(-c2cnc(C)o2)cc1S(=O)(=O)Nc1ccc(C)cc1C`, the IC50 is > 100 µM (inactive).

For the molecule `COc1ccc2nccc(NC(=O)C3(OC)CCN(CC(O)c4ccc5c(c4)OCCO5)CC3)c2n1` (centres undefined), the IC50 was 40 µM. The value for `O=C(Nc1cccc(Cl)c1)Nc1ccc([N+](=O)[O-])cc1Cl` was 32 µM; that for `Cc1cc(C)n(-c2nc(NC(C)(C)C)nc(N3CCOCC3)n2)n1` was 100 µM. The value for `O=c1ccc2ccc(F)c3c2n1C[C@H]3CN1CCN(CC(O)c2cc3c(cn2)OCS3)CC1` (some centres undefined) was > 100 µM (inactive).
